The values that follow come from publication PMC4851326, “Pharmacologic Comparison of Clinical Neutral Endopeptidase Inhibitors in a Rat Model of Acute Secretory Diarrhea” (The Journal of Pharmacology and Experimental Therapeutics, 2016).

Holding throughout (conditions): recombinant purified human enzyme; for prodrugs the active form was tested
One assay addresses T1, IDE (Homo sapiens, UniProt P14735).
T1 construct: purchased R&D Systems (Minneapolis, MN)
T1 sequence (P14735 1-1019): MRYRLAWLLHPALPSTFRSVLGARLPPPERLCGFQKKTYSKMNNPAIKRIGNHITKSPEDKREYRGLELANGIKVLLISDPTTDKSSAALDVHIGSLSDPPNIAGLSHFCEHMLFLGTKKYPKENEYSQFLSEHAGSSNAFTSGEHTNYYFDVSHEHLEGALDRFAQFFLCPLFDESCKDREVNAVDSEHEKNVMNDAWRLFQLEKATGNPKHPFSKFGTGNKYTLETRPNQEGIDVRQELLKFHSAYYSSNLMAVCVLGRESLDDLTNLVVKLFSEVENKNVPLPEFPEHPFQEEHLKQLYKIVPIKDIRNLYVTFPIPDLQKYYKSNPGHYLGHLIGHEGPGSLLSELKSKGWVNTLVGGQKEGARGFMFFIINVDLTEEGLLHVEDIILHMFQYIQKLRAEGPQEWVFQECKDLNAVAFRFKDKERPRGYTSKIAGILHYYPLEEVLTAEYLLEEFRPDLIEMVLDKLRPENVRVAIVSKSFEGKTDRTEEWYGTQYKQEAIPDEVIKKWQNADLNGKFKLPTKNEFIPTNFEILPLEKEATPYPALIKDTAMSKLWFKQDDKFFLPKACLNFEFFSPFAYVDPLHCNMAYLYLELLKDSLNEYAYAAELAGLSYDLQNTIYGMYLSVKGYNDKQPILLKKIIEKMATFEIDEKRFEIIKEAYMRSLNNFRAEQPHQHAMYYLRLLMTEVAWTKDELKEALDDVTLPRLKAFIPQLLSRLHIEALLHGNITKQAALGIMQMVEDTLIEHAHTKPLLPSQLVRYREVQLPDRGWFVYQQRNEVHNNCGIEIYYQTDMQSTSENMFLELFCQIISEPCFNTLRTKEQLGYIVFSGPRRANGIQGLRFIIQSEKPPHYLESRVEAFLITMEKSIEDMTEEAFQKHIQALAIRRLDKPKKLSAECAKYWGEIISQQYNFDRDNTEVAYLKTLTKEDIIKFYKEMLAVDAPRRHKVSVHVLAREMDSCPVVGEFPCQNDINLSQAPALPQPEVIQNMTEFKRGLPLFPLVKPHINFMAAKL
Put plainly: Purified peptidase assay, IDE. The format is biochemical. How it is done:
(§1) Purified recombinant human enzymes were purchased from R&D Systems (Minneapolis, MN). […] Each substrate was diluted to 100 μM in the assay buffer recommended for each enzyme by the supplier. […] To these, 5 μl of diluted enzyme was added, followed by 10 μl of the quenched peptide substrate. The plates were incubated at 37°C until at least 10% substrate turnover or 5 μM product had formed. Fluorescence was measured using a Tecan Safire II (Excitation 320 nm/Emission 420 nm). Each plate included a standard curve of reaction product and positive (no enzyme) and negative (dimethyl sulfoxide vehicle) controls. Dose-response data were plotted and inhibition values (IC50) determined by linear regression analysis using GraphPad Prism (GraphPad Software, La Jolla, CA).

Another assay concerns the target T2, ECE-1 (Homo sapiens, UniProt P42892).
T2 construct: purchased R&D Systems (Minneapolis, MN)
T2 sequence (P42892 1-770): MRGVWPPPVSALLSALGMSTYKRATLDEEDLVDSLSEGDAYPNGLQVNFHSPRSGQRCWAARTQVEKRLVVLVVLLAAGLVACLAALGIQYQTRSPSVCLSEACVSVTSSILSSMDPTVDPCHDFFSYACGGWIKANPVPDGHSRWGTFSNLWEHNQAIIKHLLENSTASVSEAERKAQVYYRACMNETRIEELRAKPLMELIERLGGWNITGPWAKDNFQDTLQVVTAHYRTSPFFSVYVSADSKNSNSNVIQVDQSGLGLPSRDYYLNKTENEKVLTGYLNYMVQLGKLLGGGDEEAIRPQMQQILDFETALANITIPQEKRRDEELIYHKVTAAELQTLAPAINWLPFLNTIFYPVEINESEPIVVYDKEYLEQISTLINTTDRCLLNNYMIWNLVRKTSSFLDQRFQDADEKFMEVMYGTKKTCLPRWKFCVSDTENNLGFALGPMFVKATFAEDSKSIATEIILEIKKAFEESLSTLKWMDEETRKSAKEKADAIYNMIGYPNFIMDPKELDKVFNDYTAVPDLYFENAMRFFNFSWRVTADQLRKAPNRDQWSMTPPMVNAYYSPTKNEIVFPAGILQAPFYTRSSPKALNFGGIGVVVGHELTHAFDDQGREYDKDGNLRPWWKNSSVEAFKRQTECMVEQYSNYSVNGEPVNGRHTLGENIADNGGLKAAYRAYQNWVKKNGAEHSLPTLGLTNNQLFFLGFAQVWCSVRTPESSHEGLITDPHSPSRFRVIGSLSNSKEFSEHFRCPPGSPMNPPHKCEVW
Put plainly: biochemical. As for the experimental part:
as §1

Assay [1] deals with T3, puromycin-sensitive aminopeptidase (Homo sapiens, UniProt P55786).
T3 construct: purchased R&D Systems (Minneapolis, MN)
Put plainly: Purified peptidase assay, PSA. The format is biochemical. How it is done:
as §1

In a further assay the target is T4, ACE (Homo sapiens, UniProt P12821).
T4 construct: purchased R&D Systems (Minneapolis, MN)
As to the kind of experiment: Purified peptidase assay, ACE. The class given is biochemical. As for the experimental part: as §1

A further assay deals with T5, ECE-2 (Homo sapiens, UniProt P0DPD6).
T5 construct: purchased R&D Systems (Minneapolis, MN)
T5 sequence (P0DPD6 1-811): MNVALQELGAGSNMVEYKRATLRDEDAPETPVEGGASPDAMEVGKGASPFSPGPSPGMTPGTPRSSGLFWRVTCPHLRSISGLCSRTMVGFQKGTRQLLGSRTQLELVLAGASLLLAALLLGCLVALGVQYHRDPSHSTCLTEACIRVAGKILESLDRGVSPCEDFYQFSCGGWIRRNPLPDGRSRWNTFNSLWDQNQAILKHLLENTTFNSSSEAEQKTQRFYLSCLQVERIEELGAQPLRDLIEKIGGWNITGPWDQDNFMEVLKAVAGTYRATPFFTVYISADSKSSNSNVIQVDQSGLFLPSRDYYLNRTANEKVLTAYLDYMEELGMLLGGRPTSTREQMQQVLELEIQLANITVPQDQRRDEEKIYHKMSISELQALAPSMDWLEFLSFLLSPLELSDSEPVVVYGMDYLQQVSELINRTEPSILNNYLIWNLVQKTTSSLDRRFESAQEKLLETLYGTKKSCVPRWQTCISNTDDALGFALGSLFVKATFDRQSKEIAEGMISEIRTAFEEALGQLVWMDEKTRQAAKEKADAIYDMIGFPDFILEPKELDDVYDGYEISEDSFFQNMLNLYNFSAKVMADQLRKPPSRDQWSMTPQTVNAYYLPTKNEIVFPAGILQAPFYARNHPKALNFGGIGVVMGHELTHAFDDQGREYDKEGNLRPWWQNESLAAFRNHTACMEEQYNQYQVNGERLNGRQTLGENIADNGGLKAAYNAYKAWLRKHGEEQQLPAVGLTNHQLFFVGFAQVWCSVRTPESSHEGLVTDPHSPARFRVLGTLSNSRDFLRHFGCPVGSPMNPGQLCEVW
Put plainly: Purified peptidase assay, ECE-2. The class given is biochemical. How it is done: as §1

In the next assay the target is T6, aminopeptidase N (Homo sapiens, UniProt P15144).
T6 construct: purchased R&D Systems (Minneapolis, MN)
As to the kind of experiment: Purified peptidase assay, APN. The format is biochemical. As for the experimental part:
as §1

The target of another assay is T7, NEP (Homo sapiens, UniProt P08473).
T7 construct: purchased R&D Systems (Minneapolis, MN)
Put plainly: Purified peptidase assay, NEP. The format is biochemical. How it is done:
as §1

Usually IC50 stands for the concentration at which inhibition is half-maximal.

The structures appear in SMILES notation.

T3 sequence (P55786 whole entry): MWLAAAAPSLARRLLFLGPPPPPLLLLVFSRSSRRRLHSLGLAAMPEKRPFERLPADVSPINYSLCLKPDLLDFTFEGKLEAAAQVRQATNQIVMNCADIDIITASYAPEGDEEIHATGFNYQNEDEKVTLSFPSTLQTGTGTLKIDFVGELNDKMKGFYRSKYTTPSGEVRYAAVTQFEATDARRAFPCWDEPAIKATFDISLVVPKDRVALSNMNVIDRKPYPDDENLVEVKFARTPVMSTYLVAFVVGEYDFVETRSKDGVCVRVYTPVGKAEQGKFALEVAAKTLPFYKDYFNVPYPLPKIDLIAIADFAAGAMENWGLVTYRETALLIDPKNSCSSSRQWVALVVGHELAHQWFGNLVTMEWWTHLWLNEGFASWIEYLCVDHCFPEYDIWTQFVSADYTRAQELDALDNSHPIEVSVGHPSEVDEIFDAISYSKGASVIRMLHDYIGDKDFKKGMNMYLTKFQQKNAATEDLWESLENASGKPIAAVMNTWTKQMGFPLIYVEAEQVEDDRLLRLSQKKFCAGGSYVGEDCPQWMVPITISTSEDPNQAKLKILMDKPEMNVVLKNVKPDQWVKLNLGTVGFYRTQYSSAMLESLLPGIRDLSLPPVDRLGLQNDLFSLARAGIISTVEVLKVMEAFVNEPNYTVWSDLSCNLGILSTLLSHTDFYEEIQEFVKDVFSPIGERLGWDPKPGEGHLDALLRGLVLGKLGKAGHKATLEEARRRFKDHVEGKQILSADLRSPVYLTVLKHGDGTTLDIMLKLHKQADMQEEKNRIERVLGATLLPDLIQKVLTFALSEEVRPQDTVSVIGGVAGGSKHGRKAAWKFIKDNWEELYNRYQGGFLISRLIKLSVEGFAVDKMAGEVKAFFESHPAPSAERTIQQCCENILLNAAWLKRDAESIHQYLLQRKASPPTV
T7 sequence (P08473 whole entry): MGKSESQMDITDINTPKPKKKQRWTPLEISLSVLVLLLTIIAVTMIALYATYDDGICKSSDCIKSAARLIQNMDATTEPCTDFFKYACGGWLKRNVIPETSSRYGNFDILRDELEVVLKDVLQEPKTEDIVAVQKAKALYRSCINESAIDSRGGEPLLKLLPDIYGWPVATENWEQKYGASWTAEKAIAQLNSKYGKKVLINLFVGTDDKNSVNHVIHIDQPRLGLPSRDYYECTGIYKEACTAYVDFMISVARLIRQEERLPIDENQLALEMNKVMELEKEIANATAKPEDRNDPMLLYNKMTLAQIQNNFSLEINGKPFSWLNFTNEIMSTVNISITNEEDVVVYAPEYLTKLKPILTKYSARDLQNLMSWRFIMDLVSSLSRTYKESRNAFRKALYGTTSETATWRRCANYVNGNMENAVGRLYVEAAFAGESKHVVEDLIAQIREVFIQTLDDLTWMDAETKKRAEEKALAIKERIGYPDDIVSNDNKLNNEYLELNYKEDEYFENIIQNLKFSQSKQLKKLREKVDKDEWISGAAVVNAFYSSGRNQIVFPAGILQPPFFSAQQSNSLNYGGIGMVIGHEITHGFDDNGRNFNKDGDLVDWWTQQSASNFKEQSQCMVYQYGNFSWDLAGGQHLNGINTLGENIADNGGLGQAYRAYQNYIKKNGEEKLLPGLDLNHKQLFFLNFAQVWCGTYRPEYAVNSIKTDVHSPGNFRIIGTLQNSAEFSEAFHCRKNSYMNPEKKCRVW
T4 sequence (P12821 30-1306): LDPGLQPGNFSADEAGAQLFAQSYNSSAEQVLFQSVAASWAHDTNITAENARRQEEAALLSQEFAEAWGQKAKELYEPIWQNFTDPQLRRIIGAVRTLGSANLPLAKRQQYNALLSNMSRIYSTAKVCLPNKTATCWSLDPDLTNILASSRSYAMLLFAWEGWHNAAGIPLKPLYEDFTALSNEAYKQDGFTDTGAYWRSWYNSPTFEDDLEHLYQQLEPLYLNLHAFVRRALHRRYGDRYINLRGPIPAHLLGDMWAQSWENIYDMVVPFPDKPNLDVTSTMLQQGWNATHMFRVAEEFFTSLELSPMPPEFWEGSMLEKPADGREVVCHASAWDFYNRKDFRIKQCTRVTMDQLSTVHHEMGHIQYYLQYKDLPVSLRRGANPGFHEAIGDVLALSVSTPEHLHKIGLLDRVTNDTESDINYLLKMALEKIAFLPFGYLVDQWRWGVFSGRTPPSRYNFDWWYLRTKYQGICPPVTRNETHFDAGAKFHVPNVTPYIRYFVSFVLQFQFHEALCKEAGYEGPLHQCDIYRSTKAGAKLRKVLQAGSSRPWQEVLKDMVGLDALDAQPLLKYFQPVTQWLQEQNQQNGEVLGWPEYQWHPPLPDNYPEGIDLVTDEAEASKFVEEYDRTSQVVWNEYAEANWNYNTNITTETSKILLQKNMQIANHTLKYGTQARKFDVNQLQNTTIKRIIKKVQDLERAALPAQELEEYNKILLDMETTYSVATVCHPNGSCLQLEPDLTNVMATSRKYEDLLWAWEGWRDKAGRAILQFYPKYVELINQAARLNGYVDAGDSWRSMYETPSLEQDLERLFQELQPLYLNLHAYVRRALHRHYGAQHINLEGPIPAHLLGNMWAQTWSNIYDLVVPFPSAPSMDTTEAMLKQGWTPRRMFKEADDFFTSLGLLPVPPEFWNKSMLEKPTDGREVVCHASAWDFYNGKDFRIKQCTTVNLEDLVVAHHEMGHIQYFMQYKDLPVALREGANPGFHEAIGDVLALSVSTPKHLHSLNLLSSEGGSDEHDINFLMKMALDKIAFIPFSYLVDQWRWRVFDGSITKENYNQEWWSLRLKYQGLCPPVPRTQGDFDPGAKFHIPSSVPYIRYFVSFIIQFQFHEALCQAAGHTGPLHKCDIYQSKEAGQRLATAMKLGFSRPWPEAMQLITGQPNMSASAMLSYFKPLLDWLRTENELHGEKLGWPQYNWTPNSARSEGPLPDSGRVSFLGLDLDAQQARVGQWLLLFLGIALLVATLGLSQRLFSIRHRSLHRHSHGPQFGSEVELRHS
T6 sequence (P15144 whole entry): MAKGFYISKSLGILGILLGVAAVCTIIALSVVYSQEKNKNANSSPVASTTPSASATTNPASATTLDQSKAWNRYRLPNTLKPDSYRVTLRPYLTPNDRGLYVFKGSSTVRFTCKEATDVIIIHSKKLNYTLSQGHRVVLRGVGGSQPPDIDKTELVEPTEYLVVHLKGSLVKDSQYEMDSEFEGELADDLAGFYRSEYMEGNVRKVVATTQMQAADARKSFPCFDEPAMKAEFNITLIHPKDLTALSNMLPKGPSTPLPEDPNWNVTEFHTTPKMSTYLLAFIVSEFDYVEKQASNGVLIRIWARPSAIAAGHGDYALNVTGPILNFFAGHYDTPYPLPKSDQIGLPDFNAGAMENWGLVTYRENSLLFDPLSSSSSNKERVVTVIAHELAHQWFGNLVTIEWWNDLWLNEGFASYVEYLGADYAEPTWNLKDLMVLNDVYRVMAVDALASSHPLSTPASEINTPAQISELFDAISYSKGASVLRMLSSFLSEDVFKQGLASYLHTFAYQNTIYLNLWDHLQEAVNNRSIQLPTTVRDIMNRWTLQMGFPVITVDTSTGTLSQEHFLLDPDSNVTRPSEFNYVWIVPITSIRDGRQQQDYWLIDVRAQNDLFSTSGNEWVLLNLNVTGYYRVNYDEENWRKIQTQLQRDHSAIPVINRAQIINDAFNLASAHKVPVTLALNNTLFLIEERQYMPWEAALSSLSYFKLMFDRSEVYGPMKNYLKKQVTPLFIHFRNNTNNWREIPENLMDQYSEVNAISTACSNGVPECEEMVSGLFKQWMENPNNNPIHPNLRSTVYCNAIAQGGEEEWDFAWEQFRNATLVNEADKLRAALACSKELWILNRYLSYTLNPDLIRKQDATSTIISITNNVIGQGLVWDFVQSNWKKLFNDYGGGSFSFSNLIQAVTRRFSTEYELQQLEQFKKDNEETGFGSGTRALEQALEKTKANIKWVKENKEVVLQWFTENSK

In the case of `CC1(C)CCC[C@H](NC(=O)[C@@H](S)Cc2ccccc2)C(=O)N1CC(=O)O` [Gemopatrilat], the half-inhibitory concentration (IC50) on IDE is more than 100 µM; at ECE-1 it was 12 µM; in assay [1], 18 µM; at ACE, 0.23 µM; on ECE-2, 77 µM; on aminopeptidase N, 18 µM. Also, the IC50 on NEP was determined as 0.06 µM.

In the case of `O=C(N[C@H]1CCS[C@H]2CCC[C@@H](C(=O)O)N2C1=O)[C@@H](S)Cc1ccccc1` [Omapatrilat], the concentration for half-maximal inhibition (IC50) on IDE is more than 100 µM; on ECE-1, 21 µM; in assay [1] it was more than 100 µM; at ACE, 0.19 µM; on ECE-2, 86 µM; on aminopeptidase N it was 28 µM. For the same compound, the half-maximal inhibitory concentration (IC50) at NEP came to 0.04 µM.
